Patent US20260176320A1, “MODULATORS OF G-PROTEIN COUPLED RECEPTORS” (priority 2018, published 2026)
Where two headings read alike, the source gives them in different places.

Key:
[1] = biological target: GLP-1R (Homo sapiens, UniProt P43220); assay: HitHunter cAMP assay (GLP-1R); assay type: cell-based; details: cAMP; for Emax: read-out: (Emax) GLP-1R
Method: (§1) Suspension cells were harvested and resuspended in 1×HBSS (+10 mM HEPES, 625 μM IBMX, 0.2% BSA) according to the following procedure: 5 μL of 2× cell suspension+1× antibody were added to each well, where the optimal cell density was 10,000 cells per well in a low volume 384-well plate. Agonist serial dilutions in a separate 384 well dilution plate in a 22-point series of 2× dilutions of agonist in DMSO were performed as follows. 80 μL of the highest concentration of Agonist/DMSO was added to well No. 1. 40 μL was removed from well No. 1 and added it to well No. 2, followed by gentle mixing. […] This process was repeated until well No. 22. Additional serial dilutions for additional agonists were set up in a similar manner. 50 nL of each 2× agonist serial dilution was added in duplicate to the designated agonist rows of the assay plate using the Labcyte ECHO. Assay plate was incubated for 30 minutes at room temperature. Following agonist incubation, 5 μL of cAMP Antibody Reagent was added to all wells. […] Plates were spun down briefly. Assay plate was incubated for 1 hour at room temperature in the dark for the immunocompetition reaction to occur. […] Plates were spun down briefly. Assay plate was incubated O/N at room temperature in the dark. Samples were read on Tecan i-control plate reader using luminescence mode with 300 ms integration time. Data analysis was performed using GraphPad Prism.

[2] = biological target: T1, GIP-R (Homo sapiens, UniProt P48546); assay: HitHunter cAMP assay (GIP-R); assay type: cell-based; details: cAMP; for Emax: read-out: (Emax) GIP-R; for Emax at 1 µM: read-out: (Emax) GIP-R at 1 μM, Table 3
T1 sequence (P48546 22-466): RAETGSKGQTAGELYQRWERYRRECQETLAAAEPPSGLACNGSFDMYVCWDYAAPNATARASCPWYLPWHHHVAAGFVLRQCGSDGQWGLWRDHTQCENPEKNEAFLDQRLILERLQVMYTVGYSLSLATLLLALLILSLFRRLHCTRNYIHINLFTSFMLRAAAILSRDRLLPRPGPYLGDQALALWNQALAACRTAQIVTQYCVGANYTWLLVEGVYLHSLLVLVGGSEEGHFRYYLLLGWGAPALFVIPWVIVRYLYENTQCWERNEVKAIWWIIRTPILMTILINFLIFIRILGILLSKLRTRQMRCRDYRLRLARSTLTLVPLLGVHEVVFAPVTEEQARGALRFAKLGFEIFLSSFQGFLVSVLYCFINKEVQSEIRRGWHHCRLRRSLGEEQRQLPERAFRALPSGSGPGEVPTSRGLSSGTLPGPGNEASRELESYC
Method: as §1

[3] = Table 3, read-out: EC50 GLP-1R/nM
[4] = Table 3A, read-out: EC50 GLP-1R/nM
[5] = Table 3, read-out: EC50 GIP-R/nM
[6] = Table 3A, read-out: EC50 GIP-R/nM

Chain of GLP-1R (P43220 24-463): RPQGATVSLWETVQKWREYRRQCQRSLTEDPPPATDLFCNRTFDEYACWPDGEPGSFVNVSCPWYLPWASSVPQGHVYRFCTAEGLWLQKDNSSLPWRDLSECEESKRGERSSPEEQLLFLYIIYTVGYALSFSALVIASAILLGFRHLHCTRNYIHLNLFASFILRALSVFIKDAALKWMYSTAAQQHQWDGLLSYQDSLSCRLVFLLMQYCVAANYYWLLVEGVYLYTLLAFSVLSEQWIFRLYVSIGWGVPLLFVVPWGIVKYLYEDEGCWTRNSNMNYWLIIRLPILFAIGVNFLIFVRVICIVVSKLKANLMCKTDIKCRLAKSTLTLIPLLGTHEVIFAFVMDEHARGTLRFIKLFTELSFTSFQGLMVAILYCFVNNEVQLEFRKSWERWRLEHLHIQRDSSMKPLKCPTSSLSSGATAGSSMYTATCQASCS

## CCCCCCCCCCCCCCCC(=O)N[C@@H](CCC(=O)NCCCC[C@H](NC(=O)[C@H](CO)NC(=O)[C@@H]1CCCN1C(=O)[C@@H]1CCCN1C(=O)[C@@H]1CCCN1C(=O)[C@H](C)NC(=O)CNC(=O)[C@H](CO)NC(=O)[C@H](CO)NC(=O)[C@@H]1CCCN1C(=O)CNC(=O)CNC(=O)[C@H](C)NC(=O)[C@H](CC(C)C)NC(=O)[C@H](CC(C)C)NC(=O)[C@H](Cc1c[nH]c2ccccc12)NC(=O)[C@H](CC(N)=O)NC(=O)[C@@H](NC(=O)[C@H](Cc1ccccc1)NC(=O)[C@H](CCC(=O)O)NC(=O)C(C)(C)NC(=O)[C@H](C)NC(=O)[C@H](C)NC(=O)[C@H](CCC(N)=O)NC(=O)[C@H](CCCCN)NC(=O)[C@H](CC(=O)O)NC(=O)[C@H](CC(C)C)NC(=O)[C@H](Cc1ccc(O)cc1)NC(=O)[C@@H](NC(=O)[C@H](CO)NC(=O)[C@H](Cc1ccc(O)cc1)NC(=O)[C@H](CC(=O)O)NC(=O)[C@H](CO)NC(=O)[C@@H](NC(=O)[C@H](Cc1ccccc1)NC(=O)[C@@H](NC(=O)CNC(=O)[C@H](CCC(=O)O)NC(=O)CSCC(=O)NCCN1C(=O)CC(N)C1=O)[C@@H](C)O)[C@@H](C)O)[C@@H](C)CC)C(C)C)C(N)=O)C(=O)O (mixture of isomers) [Compound 67]
[1]; Table 3
  Emax: 100%
[1]; [3]
  EC50: 0.1 to 1 nM
[1]; Table 3A
  Emax: 100%
[1]; [4]
  EC50: 0.1 to 1 nM
[2]; Table 3
  Emax: 65%
[2]; [5]
  EC50: 1 to 10 nM
[2]; Table 3A
  Emax: 65%
[2]; [6]
  EC50: 1 to 10 nM

## CCCCCCCCCCCCCCCC(=O)N[C@@H](CCC(=O)NCCCC[C@H](NC(=O)[C@H](CO)NC(=O)[C@@H]1CCCN1C(=O)[C@@H]1CCCN1C(=O)[C@@H]1CCCN1C(=O)[C@H](C)NC(=O)CNC(=O)[C@H](CO)NC(=O)[C@H](CO)NC(=O)[C@@H]1CCCN1C(=O)CNC(=O)CNC(=O)[C@H](C)NC(=O)[C@H](CC(C)C)NC(=O)[C@H](CC(C)C)NC(=O)[C@H](Cc1c[nH]c2ccccc12)NC(=O)[C@H](CC(N)=O)NC(=O)[C@@H](NC(=O)[C@H](Cc1ccccc1)NC(=O)[C@H](CCC(=O)O)NC(=O)C(C)(C)NC(=O)[C@H](C)NC(=O)[C@H](C)NC(=O)[C@H](CCC(N)=O)NC(=O)[C@H](CCCCN)NC(=O)[C@H](CC(=O)O)NC(=O)[C@H](CC(C)C)NC(=O)[C@H](Cc1ccc(O)cc1)NC(=O)[C@@H](NC(=O)[C@H](CO)NC(=O)[C@H](Cc1ccc(O)cc1)NC(=O)[C@H](CC(=O)O)NC(=O)[C@H](CO)NC(=O)[C@@H](NC(=O)[C@H](Cc1ccccc1)NC(=O)[C@@H](NC(=O)CNC(=O)[C@H](CCC(=O)O)NC(=O)CSCC(=O)NCCN1C(=O)SC(C)C1=O)[C@@H](C)O)[C@@H](C)O)[C@@H](C)CC)C(C)C)C(N)=O)C(=O)O (mixture of isomers) [Compound 90]
[1]; EC50 GLP-1R/nM, Table 3
  EC50: 1 to 10 nM
[1]; EC50 GLP-1R/nM, Table 3A
  EC50: 1 to 10 nM
[1]; Table 3
  Emax: 108%
[1]; Table 3A
  Emax: 108%
[2]; EC50 GIP-R/nM, Table 3
  EC50: 1 to 10 nM
[2]; EC50 GIP-R/nM, Table 3A
  EC50: 1 to 10 nM
[2]; Table 3
  Emax: 74%
[2]; Table 3A
  Emax: 74%

## CCCCCCCCCCCCCCCC(=O)N[C@@H](CCC(=O)NCCCC[C@H](NC(=O)[C@H](CO)NC(=O)[C@@H]1CCCN1C(=O)[C@@H]1CCCN1C(=O)[C@@H]1CCCN1C(=O)[C@H](C)NC(=O)CNC(=O)[C@H](CO)NC(=O)[C@H](CO)NC(=O)[C@@H]1CCCN1C(=O)CNC(=O)CNC(=O)[C@H](C)NC(=O)[C@H](CC(C)C)NC(=O)[C@H](CC(C)C)NC(=O)[C@H](Cc1c[nH]c2ccccc12)NC(=O)[C@H](CC(N)=O)NC(=O)[C@@H](NC(=O)[C@H](Cc1ccccc1)NC(=O)[C@H](CCC(=O)O)NC(=O)C(C)(C)NC(=O)[C@H](C)NC(=O)[C@H](C)NC(=O)[C@H](CCC(N)=O)NC(=O)[C@H](CCCCN)NC(=O)[C@H](CC(=O)O)NC(=O)[C@H](CC(C)C)NC(=O)[C@H](Cc1ccc(O)cc1)NC(=O)[C@@H](NC(=O)[C@H](CO)NC(=O)[C@H](Cc1ccc(O)cc1)NC(=O)[C@H](CC(=O)O)NC(=O)[C@H](CO)NC(=O)[C@@H](NC(=O)[C@H](Cc1ccccc1)NC(=O)[C@@H](NC(=O)CNC(=O)[C@H](CCC(=O)O)NC(=O)CSCC(=O)NCCN1C(=O)CCC(c2ccccc2)C1=O)[C@@H](C)O)[C@@H](C)O)[C@@H](C)CC)C(C)C)C(N)=O)C(=O)O (mixture of isomers) [Compound 95]
[1]; EC50 GLP-1R/nM, Table 3
  EC50: 10 to 100 nM
[1]; EC50 GLP-1R/nM, Table 3A
  EC50: 10 to 100 nM
[1]; Table 3
  Emax: 84%
[1]; Table 3A
  Emax: 84%
[2]; EC50 GIP-R/nM, Table 3
  EC50: 1 to 10 nM
[2]; EC50 GIP-R/nM, Table 3A
  EC50: 10 to 100 nM
[2]; Table 3
  Emax: 20%
[2]; Table 3A
  Emax: 20%

## CCCCCCCCCCCCCCCC(=O)N[C@@H](CCC(=O)NCCCC[C@H](NC(=O)[C@H](CO)NC(=O)[C@@H]1CCCN1C(=O)[C@@H]1CCCN1C(=O)[C@@H]1CCCN1C(=O)[C@H](C)NC(=O)CNC(=O)[C@H](CO)NC(=O)[C@H](CO)NC(=O)[C@@H]1CCCN1C(=O)CNC(=O)CNC(=O)[C@H](C)NC(=O)[C@H](CC(C)C)NC(=O)[C@H](CC(C)C)NC(=O)[C@H](Cc1c[nH]c2ccccc12)NC(=O)[C@H](CC(N)=O)NC(=O)[C@@H](NC(=O)[C@H](Cc1ccccc1)NC(=O)[C@H](CCC(=O)O)NC(=O)C(C)(C)NC(=O)[C@H](C)NC(=O)[C@H](C)NC(=O)[C@H](CCC(N)=O)NC(=O)[C@H](CCCCN)NC(=O)[C@H](CC(=O)O)NC(=O)[C@H](CC(C)C)NC(=O)[C@H](Cc1ccc(O)cc1)NC(=O)[C@@H](NC(=O)[C@H](CO)NC(=O)[C@H](Cc1ccc(O)cc1)NC(=O)[C@H](CC(=O)O)NC(=O)[C@H](CO)NC(=O)[C@@H](NC(=O)[C@H](Cc1ccccc1)NC(=O)[C@@H](NC(=O)CNC(=O)[C@H](CCC(=O)O)NC(=O)CSCC(=O)NCCN1C(=O)CC(c2ccccc2)C1=O)[C@@H](C)O)[C@@H](C)O)[C@@H](C)CC)C(C)C)C(N)=O)C(=O)O (mixture of isomers) [Compound 99]
[1]; EC50 GLP-1R/nM, Table 3
  EC50: 1 to 10 nM
[1]; EC50 GLP-1R/nM, Table 3A
  EC50: 1 to 10 nM
[1]; Table 3
  Emax: 102%
[1]; Table 3A
  Emax: 102%
[2]; EC50 GIP-R/nM, Table 3
  EC50: > 1000 nM
[2]
  Emax at 1 µM: 11%
[2]; read-out: EC50 GIP-R/nM, Table 3A
  EC50: > 1000 nM

## CC[C@H](C)[C@H](NC(=O)[C@H](CO)NC(=O)[C@H](Cc1ccc(O)cc1)NC(=O)[C@H](CC(=O)O)NC(=O)[C@H](CO)NC(=O)[C@@H](NC(=O)[C@H](Cc1ccccc1)NC(=O)[C@@H](NC(=O)CNC(=O)[C@H](CCC(=O)O)NC(=O)CSCC(=O)NCCN1C(=O)CC(c2ccccc2)C1=O)[C@@H](C)O)[C@@H](C)O)C(=O)N[C@@H](Cc1ccc(O)cc1)C(=O)N[C@@H](CC(C)C)C(=O)N[C@@H](CC(=O)O)C(=O)N[C@@H](CCCCN)C(=O)N[C@@H](CCC(N)=O)C(=O)N[C@@H](C)C(=O)N[C@@H](C)C(=O)NC(C)(C)C(=O)N[C@@H](CCC(=O)O)C(=O)N[C@@H](Cc1ccccc1)C(=O)N[C@H](C(=O)N[C@@H](CC(N)=O)C(=O)N[C@@H](Cc1c[nH]c2ccccc12)C(=O)N[C@@H](CC(C)C)C(=O)N[C@@H](CC(C)C)C(=O)N[C@@H](C)C(=O)NCC(=O)NCC(=O)N1CCC[C@H]1C(=O)N[C@@H](CO)C(=O)N[C@@H](CO)C(=O)NCC(=O)N[C@@H](C)C(=O)N1CCC[C@H]1C(=O)N1CCC[C@H]1C(=O)N1CCC[C@H]1C(=O)N[C@@H](CO)C(=O)N[C@@H](CCCCN)C(N)=O)C(C)C (mixture of isomers) [Compound 105]
[1]; EC50 GLP-1R/nM, Table 3
  EC50: 10 to 100 nM
[1]; EC50 GLP-1R/nM, Table 3A
  EC50: 10 to 100 nM
[1]; Table 3
  Emax: 90%
[1]; Table 3A
  Emax: 90%
[2]; EC50 GIP-R/nM, Table 3
  EC50: 10 to 100 nM
[2]
  Emax at 1 µM: < 10%

## CC[C@H](C)[C@H](NC(=O)[C@H](CO)NC(=O)[C@H](Cc1ccc(O)cc1)NC(=O)[C@H](CC(=O)O)NC(=O)[C@H](CO)NC(=O)[C@@H](NC(=O)[C@H](Cc1ccccc1)NC(=O)[C@@H](NC(=O)CNC(=O)[C@H](CCC(=O)O)NC(=O)CC(C)CC(=O)NCCN1C(=O)CSC1=O)[C@@H](C)O)[C@@H](C)O)C(=O)N[C@@H](Cc1ccc(O)cc1)C(=O)N[C@@H](CC(C)C)C(=O)N[C@@H](CC(=O)O)C(=O)N[C@@H](CCCCN)C(=O)N[C@@H](CCC(N)=O)C(=O)N[C@@H](C)C(=O)N[C@@H](C)C(=O)NC(C)(C)C(=O)N[C@@H](CCC(=O)O)C(=O)N[C@@H](Cc1ccccc1)C(=O)N[C@H](C(=O)N[C@@H](CC(N)=O)C(=O)N[C@@H](Cc1c[nH]c2ccccc12)C(=O)N[C@@H](CC(C)C)C(=O)N[C@@H](CC(C)C)C(=O)N[C@@H](C)C(=O)NCC(=O)NCC(=O)N1CCC[C@H]1C(=O)N[C@@H](CO)C(=O)N[C@@H](CO)C(=O)NCC(=O)N[C@@H](C)C(=O)N1CCC[C@H]1C(=O)N1CCC[C@H]1C(=O)N1CCC[C@H]1C(=O)N[C@@H](CO)C(=O)N[C@@H](CCCCN)C(N)=O)C(C)C (mixture of isomers) [Compound 120]
[1]; Table 3
  Emax: 91%
[1]; [3]
  EC50: 1 to 10 nM
[1]; Table 3A
  Emax: 91%
[1]; [4]
  EC50: 1 to 10 nM
[2]; [5]
  EC50: > 1000 nM
[2]; [6]
  EC50: > 1000 nM
[2]
  Emax at 1 µM: 6%
